Results: ChEMBL document CHEMBL5042524, “Discovery of Novel Histone Deacetylase 6 (HDAC6) Inhibitors with Enhanced Antitumor Immunity of Anti-PD-L1 Immunotherapy in Melanoma” (J Med Chem, 2022)

Columns and labels:
[1] = Tmax in Sprague-Dawley rat at 10 mg/kg, po measured upto 48 hrs by LC-MS/MS analysis; type: ADME, organism-based; settings: in vivo
[2] = tested on: B16-F10; assay: Antitumour activity against mouse B16-F10 cells allografted in C57BL/6 mouse model assessed as increase in CD3 positive/CD8 positive cells in tumor at 50 mg/kg, ip administered for 14 days by flow cytometry analysis (Rvb= 6.65%); type: functional; settings: time 14 day
[3] = tested on: B16-F10; assay: Antitumor activity against mouse B16-F10 cells allografted in C57BL/6 mouse assessed as tumor growth inhibition at 50 mg/kg, ip administered daily for 14 days by caliper method (Rvb= 63%); type: functional; settings: 336 h, time 14 day, read-out: TGI
[4] = Potency index, ratio of CAY10603 IC50 to test compound IC50 for antiproliferative activity against human YCC3/7 cells assessed as cell growth inhibition; type: functional
[5] = tested on: B16-F10; assay: (§1) Antitumour activity against mouse B16-F10 cells allografted in C57BL/6 mouse model assessed as increase in CD3 positive/CD4 positive cells in tumor at 50 mg/kg, ip administered for 14 days in presence of 2-(5-chloro-2-(3-cyanobenzyloxy)-4-((2-methylbiphenyl-3-yl)methoxy)benzylamino)-2-methylpropanoic acid by flow cytometry analysis (Rvb= 8.73%); type: functional; settings: time 14 day
[6] = MRT (0 to infinity) in Sprague-Dawley rat at 10 mg/kg, po measured upto 48 hrs by LC-MS/MS analysis; type: ADME, organism-based; settings: in vivo
[7] = MRT (0 to infinity) in Sprague-Dawley rat at 2 mg/kg, iv measured upto 48 hrs by LC-MS/MS analysis; type: ADME, organism-based; settings: in vivo
[8] = Half life in Sprague-Dawley rat at 10 mg/kg, po measured upto 48 hrs by LC-MS/MS analysis; type: ADME, organism-based; settings: in vivo
[9] = Oral bioavailability in Sprague-Dawley rat at 10 mg/kg measured upto 48 hrs by LC-MS/MS analysis; type: ADME, organism-based; settings: in vivo
[10] = AUC(0 to t) in Sprague-Dawley rat at 2 mg/kg, iv measured upto 48 hrs by LC-MS/MS analysis; type: ADME, organism-based; design: route intravenous, dose 2 mg/kg, time <=48; settings: in vivo
[11] = Clearance in Sprague-Dawley rat at 2 mg/kg, iv measured upto 48 hrs by LC-MS/MS analysis; type: ADME, organism-based; settings: in vivo
[12] = AUC (0 to infinity) in Sprague-Dawley rat at 2 mg/kg, iv measured upto 48 hrs by LC-MS/MS analysis; type: ADME, organism-based; design: route intravenous, dose 2 mg/kg, time <=48; settings: in vivo
[13] = tested on: B16-F10; assay: as §1, with “positive/CD8” for “positive/CD4”, “6.65%)” for “8.73%)”; type: functional; settings: time 14 day
[14] = MRT(0 to t) in Sprague-Dawley rat at 2 mg/kg, iv measured upto 48 hrs by LC-MS/MS analysis; type: ADME, organism-based; settings: in vivo
[15] = Cardiotoxicity in C57BL/6 mouse at 50 mg/kg, IG administered once daily via gavage for 14 days by ECG analysis; type: toxicity, organism-based; settings: in vivo, po, 336 h, time 14 day
[16] = Toxicity in C57BL/6 mouse allografted with B16-F10 cells assessed as body weight loss at 50 mg/kg, ip administered daily for 14 days; type: organism-based; settings: in vivo, 336 h, time 14 day

Tmax [1]: 5.3 h
MRT inf [6]: 8.5 h
MRT inf [7]: 1.6 h
half-life [8]: 5.8 h
bioavailability [9]: 8.7%
AUC(0-t) at 48 h [10]: 318 ng·h/mL
clearance [11]: 105 mL/min/kg
AUC(0-inf) [12]: 319 ng·h/mL
MRT last at 48 h [14]: 1.1 h
Structure (SMILES): COc1ccc(-c2ncc(C(=O)NCCCCCCC(=O)NO)s2)c(OC)c1
Activity [2]: 6.81%
inhibition in vivo at 50 mg/kg [3]: 48%
Ratio IC50 [4]: 12
Activity [5]: 26.3%
Activity [13]: 16.5%
Activity [15]: Non-Toxic
Activity [16]: Non-Toxic
